From US9451775B2, “Heterocyclic compounds as pesticides” (Bayer Intellectual Property GmbH, priority 2008, dated 2016)
Read-outs that look alike come from different tables or passages of the source.

Tests used:
[1] = logP determination by HPLC (formic acid method); assay type: physicochemical; conditions: reversed-phase HPLC column (C18), read-out: logP (HCOOH)
Procedure: 1) Description of the method for determining the logP values (formic acid method)
The logP values given in the table were determined in accordance with EEC Directive 79/831 Annex V.A8 by HPLC (High Performance Liquid Chromatography) on a reversed-phase column (C18). Temperature: 55° C.
Mobile phases for the determination in the acidic range (pH 3.4):
Mobile phase A: Acetonitrile+1 ml of formic acid/litre. Mobile phase B: water+0.9 ml of formic acid/litre.
Gradient: from 10% mobile phase A/90% mobile phase B to 95% mobile phase A/5% mobile phase B in 4.25 min.
Calibration was carried out using unbranched alkan-2-ones (having 3 to 16 carbon atoms) with known logP values (determination of the logP values by the retention times using linear interpolation between two successive alkanones). The lambda max values were determined in the maxima of the chromatographic signals using the UV spectra from 200 nm to 400 nm.

[2] = tested on: green peach aphid (Myzus persicae); assay: Myzus test (spray treatment); assay type: in vivo; conditions: foliar, application rate of 500 g/ha, sprayed Chinese cabbage leaf discs, read-out: activity (effect in %, aphids killed)
Procedure: Myzus Test (Spray Treatment)
• Solvents: 78.0 parts by weight of acetone • 1.5 parts by weight of dimethylformamide • Emulsifier: 0.5 part by weight of alkylaryl polyglycol ether
To produce a suitable preparation of active compound, 1 part by weight of active compound is mixed with the stated amounts of solvents and emulsifier, and the concentrate is diluted with emulsifier-containing water to the desired concentration.
Discs of leaves of Chinese cabbage (Brassica pekinensis) which are heavily infested by all stages of the green peach aphid (Myzus persicae) are sprayed with an active compound preparation of the desired concentration.
After the desired period of time, the effect in % is determined. 100% means that all aphids have been killed; 0% means that none of the aphids have been killed.

[3] = pH 3.4, HPLC on reversed-phase column (C18), acidic range (pH 3.4), 55° C.
[4] = pH 3.4, values printed in the text of the preparation examples, formic acid method

SMILES | chromatographic logP [1, 3] | pest or weed control at 500 g/ha [2] [%] | chromatographic logP [1, 4]
CSc1cnn(-c2sc(-c3cccnc3)nc2C)c1 [compound 33] | 2.21 | ≥ 80 | –
Cc1nc(-c2cccnc2)sc1-c1ccn(-c2nc(Cl)cs2)n1 [compound 87] | 3.47 | ≥ 80 | –
c1cnc(-c2nccc(-c3cnc(-c4cccnc4)s3)n2)nc1 [compound 88] | 1.05 | ≥ 80 | –
CCOCC(C)NC(=O)n1ccc(-c2sc(-c3cccnc3)nc2C)n1 (centres unmarked) [compound 118] | 2.69 | ≥ 80 | –
Cc1nc(-c2cccnc2)sc1-c1ccn(C(=O)NCC(C)C)n1 [compound 120] | 2.89 | ≥ 80 | –
Cc1nc(-c2cccnc2)sc1-c1ccnc(C(F)(F)C(F)(F)F)n1 [compound 142] | 3.35 | ≥ 80 | –
Cc1nc(-c2cccnc2)sc1-n1ccc(-c2ccc(Cl)s2)n1 [compound 37] | 3.81 | ≥ 80 | –
CCCc1cccc(-c2nccc(-c3sc(-c4cccnc4)nc3C)n2)n1 [compound 58] | 2.25 | ≥ 80 | –
Cc1nc(-c2cccnc2)sc1-c1ccn(Cc2ncccn2)n1 [compound 146] | 1.43 | ≥ 80 | –
Cn1nc(-c2cccnc2)cc1-c1cc[nH]n1 [compound 170] | 0.42 | ≥ 80 | –
Cc1nc(-c2cncnc2)sc1-c1cccc(-c2ncccn2)n1 [compound 150] | 1.76 | ≥ 80 | –
Cc1nc(-c2cccnc2)sc1-c1ccn(C(=O)NC(C)(C)C)n1 [compound 119] | 3.23 | ≥ 80 | –
Cc1nc(-c2cccnc2)sc1-c1ccn(C(=S)NC(C)c2ccccc2)n1 (centres unmarked) [compound 136] | 4.41 | ≥ 80 | –
Cc1nc(-c2cccnc2)sc1-c1ccn(-c2cnccn2)n1 [Preparation Example 2, 2-[3-(4-Methyl-2-pyridin-3-ylthiazol-5-yl)pyrazol-1-yl]pyrazine] | 2.3 | ≥ 80 | 2.3
Cc1cccc(-c2noc(-c3sc(-c4cccnc4)nc3C)n2)n1 [compound 139] | 2.61 | ≥ 80 | –
c1cnc(-c2cccc(-c3nnc(-c4cccnc4)s3)n2)nc1 [Preparation Example 10, 2-[6-(5-Pyridin-3-yl-[1,3,4]thiadiazol-2-yl)pyridin-2-yl]pyrimidine] | 1.54 | ≥ 80 | 1.54
Cc1nc(-c2cccnc2)sc1-c1ccn(C(=S)NC2CC2)n1 [compound 104] | 3.23 | ≥ 80 | –
Cc1nc(-c2cccnc2)sc1-n1ccc(-c2ccccn2)n1 [compound 15] | 1.67 | ≥ 80 | –
CCNC(=O)n1ccc(-c2sc(-c3cccnc3)nc2C)n1 [compound 121] | 2.05 | ≥ 80 | –
Cc1nc(-c2cccnc2)sc1-c1nnc(C(F)(F)F)s1 [compound 102] | 2.85 | ≥ 80 | –
Cc1nc(-c2cccnc2)sc1-c1ccn(-c2cccc(Cl)n2)n1 [compound 92] | 3.84 | ≥ 80 | –
Cc1nc(-c2cccnc2)sc1C1=NN(c2ncccn2)CCO1 [Preparation Example 7, 2-(4-Methyl-2-pyridin-3-ylthiazol-5-yl)-4-pyrimidin-2-yl-5,6-dihydro-4H-[1,3,4]oxadiazine] | 1.56 | ≥ 80 | 1.56
Cc1nc(-c2cccnc2)sc1-c1ccn(-c2nnc(C3CCC3)s2)n1 [compound 106] | 3.42 | ≥ 80 | –
COCc1nccc(-c2sc(-c3cccnc3)nc2C)n1 [compound 61] | 1.57 | ≥ 80 | –

SMILES | chromatographic logP [1, 3] | pest or weed control at 500 g/ha [2] [%] | chromatographic logP [1, 4]
Cc1nc(-c2cccnc2)sc1-n1cc(-c2ccccn2)cn1 [compound 39] | 1.55 | ≥ 80 | –
Cc1nc(-c2cccnc2)sc1-c1ccn(C(=O)NC(C)(C)C(C)C)n1 [compound 130] | 4.17 | ≥ 80 | –
COC(OC)c1ccn(-c2sc(-c3cccnc3)nc2C)n1 [compound 19] | 1.77 | ≥ 80 | –
CCc1nnc(-n2ccc(-c3sc(-c4cccnc4)nc3C)n2)s1 [compound 84] | 2.61 | ≥ 80 | –
c1cnc(-c2cccc(-c3nnc(-c4cncnc4)s3)n2)nc1 [compound 164] | 1.39 | ≥ 80 | –
Cc1nc(-c2cccnc2)sc1-n1ccc(-c2ccco2)n1 [compound 40] | 2.43 | ≥ 80 | –
Cc1nc(-c2cccnc2)sc1-n1ccc(-c2ccccc2C(F)(F)F)n1 [compound 38] | 3.94 | ≥ 80 | –
Cc1nc(-c2cccnc2)sc1-n1ccc(-c2ccccc2)n1 [compound 28] | 3.08 | ≥ 80 | –
Cc1nc(-c2cccnc2)sc1-c1cncc(-c2cc(C)n(C)n2)n1 [compound 43] | 1.86 | ≥ 80 | –
CCOCCNC(=O)n1ccc(-c2sc(-c3cccnc3)nc2C)n1 [compound 115] | 2.2 | ≥ 80 | –
Cc1nc(-c2cccnc2)sc1-n1ccc(-c2cccs2)n1 [compound 34] | 2.84 | ≥ 80 | –
Fc1cncc(-c2nnc(-c3cccc(-c4ncccn4)n3)s2)c1 [compound 165] | 1.91 | ≥ 80 | –
Cc1nc(-c2cccnc2)sc1-n1ccc(-c2ncccn2)n1 [Preparation Example 3, 2-[1-(4-Methyl-2-pyridin-3-ylthiazol-5-yl)-1H-pyrazol-3-yl]pyrimidine] | 1.48 | ≥ 80 | 1.48
Cc1cccc(-c2nccc(-c3sc(-c4cccnc4)nc3C)n2)n1 [compound 54] | 1.49 | ≥ 80 | –
COC(=O)c1cccc(-c2sc(-c3cccnc3)nc2C)n1 [compound 95] | 2.03 | ≥ 80 | –
c1cnc(N2CCOC(c3cnc(-c4cccnc4)s3)=N2)nc1 [compound 67] | 1.9 | ≥ 80 | –
Cc1nc(-c2cccnc2)sc1-c1ccn(C(=S)NCC(F)(F)F)n1 [compound 141] | 3.42 | ≥ 80 | –
Cc1nc(-c2cccnc2)sc1-c1ccc(C(F)(F)F)cn1 [compound 99] | 3.14 | ≥ 80 | –
Cc1nc(-c2cccnc2)sc1-c1ccnc(C(F)(F)Cl)n1 [compound 45] | 2.95 | ≥ 80 | –
Cc1nc(-c2cccnc2)sc1-c1ccn(-c2nnc(C3CC3)s2)n1 [compound 86] | 2.72 | ≥ 80 | –
Cc1nc(-c2cccnc2)sc1-c1ccnc(-c2ccco2)n1 [compound 52] | 2.35 | ≥ 80 | –
Cc1nc(-c2cccnc2)sc1-c1cccc(N2CCOCC2)n1 [compound 96] | 2.58 | ≥ 80 | –
c1cncc(-c2nnc(-c3cccnc3)s2)c1 [compound 163] | 1.07 | ≥ 80 | –
